Experimental data as given in patent US10669242B2 (priority 2016, dated 2020).
pIC50: −log10 of the molar value.

Columns and labels:
[1] = target: T1, recombinant glucosyltransferase domain of C. difficile Toxin B/TcdB (Clostridioides difficile, UniProt P18177); assay: biochemical
T1 construct: 6-His (C); purchased R&D Systems 6246-GT

[2] = target: T2, C. difficile full-length toxin TcdA (Clostridioides difficile, UniProt P16154); assay: cell-based
T2 construct: C. difficile full-length toxins (TcdA or TcdB); purchased Enzo Life Sciences BML-G140-0050

[3] = target: T3, C. difficile full-length toxin TcdB (Clostridioides difficile, UniProt P18177); assay: cell-based
T3 construct: C. difficile full-length toxins (TcdA or TcdB); purchased EMD Millipore 616377
T3 sequence (P18177 2-2366 limits assumed): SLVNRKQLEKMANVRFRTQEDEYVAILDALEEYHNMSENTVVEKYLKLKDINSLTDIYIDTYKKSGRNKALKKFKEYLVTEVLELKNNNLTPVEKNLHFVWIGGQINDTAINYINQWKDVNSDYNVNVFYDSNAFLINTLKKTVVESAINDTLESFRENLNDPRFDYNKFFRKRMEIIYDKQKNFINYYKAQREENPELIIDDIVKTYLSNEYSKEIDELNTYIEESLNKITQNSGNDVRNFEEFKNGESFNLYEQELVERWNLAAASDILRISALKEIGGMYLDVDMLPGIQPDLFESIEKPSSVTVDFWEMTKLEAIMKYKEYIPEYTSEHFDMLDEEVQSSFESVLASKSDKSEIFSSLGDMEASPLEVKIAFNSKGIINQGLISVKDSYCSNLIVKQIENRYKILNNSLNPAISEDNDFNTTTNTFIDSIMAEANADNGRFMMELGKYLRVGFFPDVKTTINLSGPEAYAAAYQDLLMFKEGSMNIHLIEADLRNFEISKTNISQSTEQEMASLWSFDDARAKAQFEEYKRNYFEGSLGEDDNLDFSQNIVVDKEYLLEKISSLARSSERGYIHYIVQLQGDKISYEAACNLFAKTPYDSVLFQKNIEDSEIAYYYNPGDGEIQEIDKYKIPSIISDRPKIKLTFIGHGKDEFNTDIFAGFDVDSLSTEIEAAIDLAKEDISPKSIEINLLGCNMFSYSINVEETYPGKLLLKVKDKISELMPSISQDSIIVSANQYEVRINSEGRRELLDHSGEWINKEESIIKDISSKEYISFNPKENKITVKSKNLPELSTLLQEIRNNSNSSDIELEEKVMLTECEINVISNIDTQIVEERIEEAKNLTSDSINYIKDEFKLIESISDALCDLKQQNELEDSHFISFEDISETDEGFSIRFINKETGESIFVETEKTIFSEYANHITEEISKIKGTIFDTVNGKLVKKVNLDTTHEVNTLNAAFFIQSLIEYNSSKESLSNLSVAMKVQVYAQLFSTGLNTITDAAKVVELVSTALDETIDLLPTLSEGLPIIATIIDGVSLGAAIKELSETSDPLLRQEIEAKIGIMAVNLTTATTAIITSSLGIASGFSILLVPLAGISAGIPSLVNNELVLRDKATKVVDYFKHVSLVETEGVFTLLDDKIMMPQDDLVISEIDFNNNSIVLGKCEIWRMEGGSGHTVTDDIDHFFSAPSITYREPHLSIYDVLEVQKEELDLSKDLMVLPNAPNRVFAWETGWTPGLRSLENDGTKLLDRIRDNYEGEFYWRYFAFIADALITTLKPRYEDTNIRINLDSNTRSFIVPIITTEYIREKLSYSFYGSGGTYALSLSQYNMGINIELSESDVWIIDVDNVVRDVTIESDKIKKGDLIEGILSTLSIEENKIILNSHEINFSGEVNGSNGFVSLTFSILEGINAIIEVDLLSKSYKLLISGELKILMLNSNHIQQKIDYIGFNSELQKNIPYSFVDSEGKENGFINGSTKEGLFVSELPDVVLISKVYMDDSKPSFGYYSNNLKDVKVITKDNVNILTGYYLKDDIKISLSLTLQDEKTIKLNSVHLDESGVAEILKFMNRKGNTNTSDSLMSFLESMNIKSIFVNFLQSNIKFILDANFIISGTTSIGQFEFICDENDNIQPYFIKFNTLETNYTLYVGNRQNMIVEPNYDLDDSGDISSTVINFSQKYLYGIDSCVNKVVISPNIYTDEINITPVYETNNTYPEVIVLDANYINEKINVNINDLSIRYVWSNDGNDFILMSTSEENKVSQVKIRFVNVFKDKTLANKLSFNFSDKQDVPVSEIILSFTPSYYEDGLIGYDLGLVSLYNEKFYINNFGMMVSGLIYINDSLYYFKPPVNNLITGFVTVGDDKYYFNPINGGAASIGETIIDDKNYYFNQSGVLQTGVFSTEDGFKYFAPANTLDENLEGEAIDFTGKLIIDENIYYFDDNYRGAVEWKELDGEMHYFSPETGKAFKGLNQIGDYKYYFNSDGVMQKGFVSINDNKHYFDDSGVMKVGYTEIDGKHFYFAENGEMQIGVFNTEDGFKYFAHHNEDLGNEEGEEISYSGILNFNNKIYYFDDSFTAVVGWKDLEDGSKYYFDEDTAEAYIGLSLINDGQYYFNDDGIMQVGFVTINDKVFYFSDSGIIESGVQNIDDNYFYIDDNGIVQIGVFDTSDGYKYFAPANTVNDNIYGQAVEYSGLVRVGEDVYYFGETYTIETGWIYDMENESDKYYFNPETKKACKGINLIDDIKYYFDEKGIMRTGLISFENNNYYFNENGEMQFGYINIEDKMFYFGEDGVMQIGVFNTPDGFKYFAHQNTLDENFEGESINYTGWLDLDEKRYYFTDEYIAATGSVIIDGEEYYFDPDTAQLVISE

[4] = system: C. difficile toxin (TcdA and TcdB, ~1:1); assay: Murine C. difficile toxin model (intrarectal toxin); type: in vivo, C57BL/6 mice; settings: murine C. difficile toxin model, PO, 50 mg/kg body weight
Experimental: In the following studies, we established a murine C. difficile toxin model with modifications from a published murine model (Hirota, Iablokov et al. 2012). Details of the murine C. difficile toxin model are described in the “Experimental Protocols” (below). C. difficile toxins were isolated from a culture of the C. difficile strain VPI 10463. C. difficile toxins consisted of TcdA and TcdB (˜1:1 ratio of TcdA:TcdB). Respective TcdA and TcdB concentrations were determined by enzyme-linked immunosorbant assay (ELISA). In our mouse model, C. difficile toxins were administered intrarectally to evaluate their pathological effects.
We administered C. difficile toxin (12.5 μg/mouse) via intrarectal instillation into female C57BL/6 mice. Four (4) animals were used in each group. Four (4) hours after the toxin administration, the mice were euthanized. The colons were excised from the animals and washed with phosphate buffered saline (PBS). The colon lengths were measured. Excised colon tissues were stored at −70° C. for chemical analysis of interleukin-1β(IL-1β) and myeloperosidase (MPO) in tissues, which are the hallmarks of colon inflammation. Excised colon tissues were also stored at room temperature in 10% neutral buffered formalin for histopathological analysis.
Using the murine C. difficile toxin model (Example 61), we evaluated the efficacy of Example 6a in reducing the C. difficile toxin activity. In this study, the isolated toxin (12.5 μg) was diluted in 50 μl of PBS and mixed with a 50 μl suspension of Example 6a (10 mg/mL) in 1% carboxymethyl cellulose and 0.5% Tween 80 to achieve a fixed dose of […] of Example 6a (0.5 mg in mice weighing ˜20 g) and C. difficile toxin (12.5 μg). Three (3) animals were used in each group.
In this study, we evaluated the efficacy of Example 6a via different routes of administration (i.e., oral (PO) and intraperitoneal (IP) administrations) in the same murine C. difficile toxin model (Example 61). In both PO and IP dosages, Example 6a was prepared as 5 mg/mL solutions in 20% PEG-400, 0.4% carboxymethyl cellulose and 0.2% Tween 80. Example 6a was administered at a final dose of 50 mg/kg body weight. Three (3) mice were used in each group (i.e., vehicle (control), PO and IP).
Using the murine C. difficile toxin model (Example 63), we further tested the efficacy of four (4) additional compounds (i.e., Example 6a, Example 5ae, Example 4cl, and Example 5al) via PO administration. All of the compounds were dosed orally at 50 mg/kg body weight. In three separate studies a total of three (3) to fourteen (14) mice were used in each group.
We evaluated the efficacy of additional compounds in reducing C. difficile toxicity. Using the PO administration (Example 63), we further tested 30 compounds (Table 34). All of the compounds were dosed orally at 50 mg/kg body weight. Three (3) to fourteen (14) animals were used for each compound. % inhibition was determined by the following formula: […]
An overnight culture of C. difficile strain VPI 10463 (American Type Culture Collection) was grown at 37° C. in Brain-Heart Infusion (BHI) broth using the GasPak EZ Anaerobe Pouch System (Becton Dickinson). 2 mL of the culture was added to 28 mL of phosphate buffered saline (PBS) in a gamma-irradiated, 10,000 molecular weight cut-off, 30-70 ml Slide-A-Lyzer G2 dialysis cassette (Pierce). This cassette was submerged in 1 L of BHI broth in a 2 L beaker and incubated under anaerobic conditions for 5 days at 37° C. The culture was then transferred to a 50 mL conical tube and the cassette was washed with 10 mL of PBS. The combined culture and wash were centrifuged at 2,000 g for 20 minutes to pellet the bacteria and the supernatant was filtered through a 0.2 μm syringe filter. The filtrate was then applied to a 20 mL 150 K molecular weight cut-off concentration column (Pierce) and centrifuged at 2,000 g for 15 minutes. Concentrated supernatant was stored at 4° C. […]

T1 sequence (P18177 1-543): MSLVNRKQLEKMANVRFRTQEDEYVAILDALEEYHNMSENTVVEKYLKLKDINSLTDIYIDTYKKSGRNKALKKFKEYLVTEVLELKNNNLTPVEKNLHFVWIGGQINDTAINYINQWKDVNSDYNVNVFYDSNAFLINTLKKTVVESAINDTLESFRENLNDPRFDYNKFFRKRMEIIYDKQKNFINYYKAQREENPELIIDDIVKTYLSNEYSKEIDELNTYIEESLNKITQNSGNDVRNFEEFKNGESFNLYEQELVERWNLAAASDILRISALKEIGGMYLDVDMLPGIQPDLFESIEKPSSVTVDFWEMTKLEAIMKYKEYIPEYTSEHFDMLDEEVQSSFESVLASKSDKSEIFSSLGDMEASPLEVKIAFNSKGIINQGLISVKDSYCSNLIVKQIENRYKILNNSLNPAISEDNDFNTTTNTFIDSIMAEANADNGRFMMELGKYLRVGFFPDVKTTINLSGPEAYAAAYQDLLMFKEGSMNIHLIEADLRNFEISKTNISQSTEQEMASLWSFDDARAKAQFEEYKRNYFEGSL

## COc1cc(CN2C(=O)c3ccc(Cl)cc3NC(=O)[C@H]2Cc2ccccn2)ccc1C(=O)Nc1ccc(C)cn1 [Example 4cm, (R)-4-((8-Chloro-2,5-dioxo-3-(pyridin-2-ylmethyl)-2,3-dihydro-1H-benzo[e][1,4]diazepin-4(5H)-yl)methyl)-2-methoxy-N-(5-methylpyridin-2-yl)benzamide]
[1]
  pIC50: > 7.00
[2]
  pIC50: < 5.00
[3]
  pIC50: 6.00 to 7.00
[4]
  IL-1β (% Inhibition): 49%
  MPO (% Inhibition): 35%

## Cc1cnc(NC(=O)c2ccc(CN3C(=O)c4ccc(Cl)cc4NC(=O)[C@H]3Cc3ccccn3)cc2Cl)cn1 [Example 5aa, (R)-2-Chloro-4-((8-chloro-2,5-dioxo-3-(pyridin-2-ylmethyl)-2,3-dihydro-1H-benzo[e][1,4]diazepin-4(5H)-yl)methyl)-N-(5-methylpyrazin-2-yl)benzamide]
[1]
  pIC50: > 7.00
[2]
  pIC50: 5.00 to 6.00
[3]
  pIC50: 6.00 to 7.00
[4]
  IL-1β (% Inhibition): 63%
  MPO (% Inhibition): 50%

## COc1cnc(NC(=O)c2ccc(CN3C(=O)c4ccc(Cl)cc4NC(=O)[C@H]3Cc3ccccn3)cc2Cl)nc1 [Example 5ab, (R)-2-Chloro-4-((8-chloro-2,5-dioxo-3-(pyridin-2-ylmethyl)-2,3-dihydro-1H-benzo[e][1,4]diazepin-4(5H)-yl)methyl)-N-(5-methoxypyrimidin-2-yl)benzamide]
[1]
  pIC50: > 7.00
[2]
  pIC50: 5.00 to 6.00
[3]
  pIC50: > 7.00
[4]
  IL-1β (% Inhibition): 100%
  MPO (% Inhibition): 100%

## COc1cnc(NC(=O)c2ccc(CN3C(=O)c4ccc(Cl)cc4NC(=O)[C@H]3Cc3ccccn3)cc2C)cn1 [Example 5af, (R)-4-((8-Chloro-2,5-dioxo-3-(pyridin-2-ylmethyl)-2,3-dihydro-1H-benzo[e][1,4]diazepin-4(5H)-yl)methyl)-N-(5-methoxypyrazin-2-yl)-2-methylbenzamide]
[1]
  pIC50: > 7.00
[2]
  pIC50: 5.00 to 6.00
[3]
  pIC50: 6.00 to 7.00
[4]
  IL-1β (% Inhibition): 100%
  MPO (% Inhibition): 100%

## Cc1cnc(NC(=O)c2ccc(CN3C(=O)c4ccc(Cl)cc4NC(=O)[C@H]3Cc3ccccn3)cc2C)cn1 [Example 5ah, (R)-4-((8-Chloro-2,5-dioxo-3-(pyridin-2-ylmethyl)-2,3-dihydro-1H-benzo[e][1,4]diazepin-4(5H)-yl)methyl)-2-methyl-N-(5-methylpyrazin-2-yl)benzamide]
[1]
  pIC50: > 7.00
[2]
  pIC50: 5.00 to 6.00
[3]
  pIC50: 6.00 to 7.00
[4]
  IL-1β (% Inhibition): 91%
  MPO (% Inhibition): 65%

## COc1cnc(NC(=O)c2ccc(CN3C(=O)c4ccc(Cl)cc4NC(=O)[C@H]3Cc3ccccn3)cc2C)nc1 [Example 5ai, (R)-4-((8-Chloro-2,5-dioxo-3-(pyridin-2-ylmethyl)-2,3-dihydro-1H-benzo[e][1,4]diazepin-4(5H)-yl)methyl)-N-(5-methoxypyrimidin-2-yl)-2-methylbenzamide]
[1]
  pIC50: > 7.00
[2]
  pIC50: 6.00 to 7.00
[3]
  pIC50: > 7.00
[4]
  IL-1β (% Inhibition): 96%
  MPO (% Inhibition): 79%

## COc1cc(CN2C(=O)c3ccc(Cl)cc3NC(=O)[C@H]2Cc2ccccn2)ccc1C(=O)Nc1cnc(C)cn1 [Example 5aj, (R)-4-((8-Chloro-2,5-dioxo-3-(pyridin-2-ylmethyl)-2,3-dihydro-1H-benzo[e][1,4]diazepin-4(5H)-yl)methyl)-2-methoxy-N-(5-methylpyrazin-2-yl)benzamide]
[1]
  pIC50: > 7.00
[2]
  pIC50: 5.00 to 6.00
[3]
  pIC50: 6.00 to 7.00
[4]
  IL-1β (% Inhibition): 76%
  MPO (% Inhibition): 17%

## COc1cnc(NC(=O)c2ccc(CN3C(=O)c4ccc(Cl)cc4NC(=O)[C@H]3Cc3ccccn3)cc2OC)cn1 [Example 5ak, (R)-4-((8-Chloro-2,5-dioxo-3-(pyridin-2-ylmethyl)-2,3-dihydro-1H-benzo[e][1,4]diazepin-4(5H)-yl)methyl)-2-methoxy-N-(5-methoxypyrazin-2-yl)benzamide]
[1]
  pIC50: > 7.00
[2]
  pIC50: 5.00 to 6.00
[3]
  pIC50: 6.00 to 7.00
[4]
  IL-1β (% Inhibition): 71%
  MPO (% Inhibition): 73%

## COc1cc(CN2C(=O)c3ccc(Cl)cc3NC(=O)[C@H]2Cc2ccccn2)ccc1C(=O)Nc1ncc(C)cn1 [Example 5am, (R)-4-((8-Chloro-2,5-dioxo-3-(pyridin-2-ylmethyl)-2,3-dihydro-1H-benzo[e][1,4]diazepin-4(5H)-yl)methyl)-2-methoxy-N-(5-methylpyrimidin-2-yl)benzamide]
[1]
  pIC50: > 7.00
[2]
  pIC50: 5.00 to 6.00
[3]
  pIC50: 6.00 to 7.00
[4]
  IL-1β (% Inhibition): 54%
  MPO (% Inhibition): 31%

## COc1cnc(NC(=O)c2ccc(CN3C(=O)c4ccc(Cl)cc4NC(=O)[C@H]3Cc3ccccn3)cc2OC)nc1 [Example 5an, (R)-4-((8-Chloro-2,5-dioxo-3-(pyridin-2-ylmethyl)-2,3-dihydro-1H-benzo[e][1,4]diazepin-4(5H)-yl)methyl)-2-methoxy-N-(5-methoxypyrimidin-2-yl)benzamide]
[1]
  pIC50: > 7.00
[2]
  pIC50: 5.00 to 6.00
[3]
  pIC50: 6.00 to 7.00
[4]
  IL-1β (% Inhibition): 87%
  MPO (% Inhibition): 63%

## O=C(c1ccc(CN2C(=O)c3ccc(Cl)cc3NC(=O)[C@H]2Cc2ccccn2)cc1)c1ccccn1 [Example 11a, (R)-8-Chloro-4-(4-picolinoylbenzyl)-3-(pyridin-2-ylmethyl)-3,4-dihydro-1H-benzo[e][1,4]diazepine-2,5-dione]
[1]
  pIC50: > 7.00
[2]
  pIC50: < 5.00
[3]
  pIC50: 5.00 to 6.00
[4]
  IL-1β (% Inhibition): 22%
  MPO (% Inhibition): 0%

## Cc1ccc(C(=O)c2ccc(CN3C(=O)c4ccc(Cl)cc4NC(=O)[C@H]3Cc3ccccn3)cc2)nc1 [Example 11b, (R)-8-Chloro-4-(4-(5-methylpicolinoyl)benzyl)-3-(pyridin-2-ylmethyl)-3,4-dihydro-1H-benzo[e][1,4]diazepine-2,5-dione]
[1]
  pIC50: > 7.00
[2]
  pIC50: < 5.00
[3]
  pIC50: 5.00 to 6.00
[4]
  IL-1β (% Inhibition): 52%
  MPO (% Inhibition): 100%

## O=C(c1ccccn1)c1ccc(CN2C(=O)c3ccc(Cl)cc3NC(=O)[C@H]2Cc2ccccn2)cc1Cl [Example 11g, (R)-8-Chloro-4-(3-chloro-4-picolinoylbenzyl)-3-(pyridin-2-ylmethyl)-3,4-dihydro-1H-benzo[e][1,4]diazepine-2,5-dione]
[1]
  pIC50: > 7.00
[2]
  pIC50: < 5.00
[3]
  pIC50: 5.00 to 6.00
[4]
  IL-1β (% Inhibition): 15%
  MPO (% Inhibition): 28%

## O=C(Nc1ccc(CN2C(=O)c3ccc(Cl)cc3NC(=O)[C@H]2Cc2ccccn2)cc1)c1c[nH]cn1 [Example 27j, (R)-N-(4-((8-Chloro-2,5-dioxo-3-(pyridin-2-ylmethyl)-2,3-dihydro-1H-benzo[e][1,4]diazepin-4(5H)-yl)methyl)phenyl)-1H-imidazole-4-carboxamide]
[1]
  pIC50: > 7.00
[2]
  pIC50: < 5.00
[3]
  pIC50: 5.00 to 6.00
[4]
  IL-1β (% Inhibition): 41%
  MPO (% Inhibition): 1%
